Values of other authors, collected in patent US20130189275A1, “COMPOSITIONS AND METHODS FOR INHIBITION OF OR TREATMENT OF DENGUE VIRUS INFECTION” (priority 2010, published 2013).

Experiments:
[1] = system: Syndecan-1
[2] = system: Syndecan-4
[3] = system: Syndecan-2
[4] = system: Syndecan-3

## Cc1cccc(Nc2cc(Cl)nc(SCC(=O)O)n2)c1C [pirinixic acid]
[1]
  syndecan-1 expression: downregulated

## O=C1NC(=O)C(c2ccccc2)(c2ccccc2)N1 [phenyloin (PHT), phenyloin]
[2]
  syndecan-4 expression: downregulated

## CC1=C(/C=C/C(C)=C/C=C/C(C)=C/C(=O)O)C(C)(C)CCC1 [tretinoin]
[1]
  syndecan-1 expression: downregulated

## C=C(c1ccc(C(=O)O)cc1)c1cc2c(cc1C)C(C)(C)CCC2(C)C [bexarotene]
[3]
  syndecan-2 expression: downregulated

## C[C@]12CCC(=O)C[C@@H]1CC[C@@H]1[C@@H]2CC[C@]2(C)[C@@H](O)CC[C@@H]12 [dihydrotestosterone]
[4]
  syndecan-3 expression: downregulated
